Reference: EP4813377A1, “PHARMACEUTICAL COMPOSITION FOR PREVENTING OR TREATING HEAD AND NECK CANCER” (Astrion Inc., priority 2023, dated 2025)

Key:
[1] = test system: FaDu cells; experiment: drug combination effect, SRB assay with Bliss scoring; assay type: cell-based, human; details: five days co-treatment, score > 0 = synergistic
Experimental: The combination effect of compound AON-MG23 of the present invention was confirmed using Bliss scoring based on the results of the sulforhodamine B assay (SRB assay). Specifically, human head and neck cancer cell line FaDu cells were plated in a 96-well cell culture plate at a density of 1 x 10^3 cells/well. On the next day, in order to confirm the combination effect with compound AON-MG23 of the present invention, a drug, paclitaxel or osimertinib, was diluted to concentrations for testing, and cells were treated with the diluted drug and then cultured for five days. […] The absorbance of the dissolved solution was measured at 540 nm using a plate reader. The measured absorbance values were compared to the control group and converted into percentages, and the combination effect was analyzed using the percentage data at an analysis website (https://synergyfinder.fimm.fi/). The presence of a combination effect was evaluated according to the following criteria based on relevant literature (Bliss, C. I. (1939). The toxicity of poisons applied jointly. Annals of Applied Biology, 26(3), 585-615.): a score > 0 indicates a synergistic effect; a score = 0 indicates an independent effect; and a score < 0 indicates an antagonistic effect.

[2] = test system: SCC-25 cells; experiment: Matrigel Transwell invasion assay; assay type: cell-based, human; details: 0.25-2 µM, 24 hours, FIG. 4B
Experimental: (§1) Human head and neck cancer cell lines, FaDu cells and SCC-25 cells, were seeded at a density of 6 x 10^4 cells/well on top of filters coated with Matrigel (Transwell invasion chamber, Corning). Thereafter, the FaDu cells were treated with compound AON-MG23 of the present invention at concentrations of 0 µM, 0.25 µM, 0.5 µM, 1 µM, and 2 µM, and the SCC-25 cells were also treated with the compound at concentrations of 0 µM, 0.25 µM, 0.5 µM, 1 µM, and 2 µM. Cells were cultured in a CO2 in an incubator at 37 °C for 24 hours. After culture, cell fixation and staining were performed using the Diff-Quick stain Kit (Sysmex, Kobe, Japan). The stained cells were imaged under a microscope, and the cells were counted and statistically analyzed using Image J software.

[3] = test system: FaDu cells; experiment: Matrigel Transwell invasion assay; assay type: cell-based, human; details: 0.25-2 µM, 24 hours, FIG. 4A
Experimental: as §1

[4] = test system: EGFR protein; experiment: Western blot of protein expression; assay type: cell-based, human; details: 48 hours, concentration-dependent
Experimental: (§2) Human head and neck cancer cell lines, FaDu cells and SCC-25 cells, were seeded in 60 mm dishes at a density of 5 × 10^5 cells and cultured for 24 hours. Thereafter, the FaDu cells were treated with compound AON-MG23 of the present invention at concentrations of 0 µM, 0.25 µM, 0.5 µM, 1 µM, 2 µM, and 4 µM, and the SCC-25 cells were treated with the compound at concentrations of 0 µM, 0.25 µM, 0.5 µM, 1 µM, and 2 µM. The cells were cultured for 48 hours. After culture, the cells were recovered, and the recovered cells were lysed to perform Western blot. As antibodies used for Western blot, an anti-ANO1 antibody (Abcam, ab53212), an anti-EGFR antibody (Cell Signaling, #4267S), and an anti-glyceraldehyde 3-phosphate dehydrogenase (GAPDH) antibody (Santacruz, #SC-5286) were used. Protein concentration was quantified using the […] (Protein Quantitation Assay, BSA assay) (Pierce, Cat.23225). After lysing the cells, the proteins obtained therefrom were separated by molecular weight using 10% sodium dodecyl sulfate-polyacrylamide gel electrophoresis (SDS-PAGE) with equal amounts (20 µg). After transferring the proteins to a polyvinylidene fluoride (PVDF) membrane (Bio-Rad), the proteins were treated with a 5% blocking buffer (5% skim milk in Tris-buffered saline (TBS) buffer containing 0.1% Tween 20 (TBS-T)) at room temperature for one hour. Subsequently, the membrane was treated with a primary antibody, which was allowed to react at 4 °C for 16 hours. After the reaction was complete, the membrane was washed three times with TBS-T. Subsequently, the membrane was treated with a secondary antibody labeled with horseradish peroxidase at room temperature for one hour and then visualized using an enhanced chemiluminescence (ECL) kit (Bio-Rad). The amount of each protein was quantified and analyzed using Image J software.

[5] = test system: ANO1 protein; experiment: Western blot of protein expression; assay type: cell-based, human; details: 48 hours, concentration-dependent
Experimental: as §2

[6] = test system: SCC-25 cells; experiment: CCK assay, cell proliferation; assay type: cell-based, human; details: 0.5-4 µM, 48 hours, absorbance at 450 nm, FIG. 1
Experimental: (§3) FaDu cells and squamous cell carcinoma-25 (SCC-25) cells, which are human head and neck cancer cell lines, were seeded in 96-well plates at a density of 1 x 10^5 cells/well and cultured for 24 hours. Thereafter, the cells were treated with compound AON-MG23 of the present invention at various concentrations and cultured for 48 hours. The cells were treated with the compound of the present invention at various concentrations of 0 µM, 0.5 µM, 1 µM, 2 µM, and 4 µM. 10 µL of cell counting kit (CCK) reagent was added and allowed to react for one hour, and then the absorbance was measured at 450 nm.

[7] = test system: FaDu cells; experiment: CCK assay, cell proliferation; assay type: cell-based, human; details: 0.5-4 µM, 48 hours, absorbance at 450 nm, FIG. 1
Experimental: as §3

[8] = test system: SCC-25 cells; experiment: cell migration assay (SPLScar Block plates); assay type: cell-based; details: Homo sapiens, 17 hours, FIG. 3B, read-out: inhibition of migration compared to the control group
Experimental: (§4) Human head and neck cancer cell lines, FaDu cells and SCC-25 cells, were seeded in SPLScar Block plates (SPL) at a density of 7.2 x 10^4/well and cultured for 24 hours. After 24 hours, the blocks were removed, and at the same time, compound AON-MG23 of the present invention was applied at various concentrations. Thereafter, cells were cultured in a CO2 incubator at 37 °C for 17 hours. Specifically, the FaDu cells were treated with compound AON-MG23 of the present invention at concentrations of 0 µM, 0.25 µM, 0.5 µM, 1 µM, and 2 µM, and the SCC-25 cells were also treated at concentrations of 0 µM, 0.25 µM, 0.5 µM, 1 µM, and 2 µM. Photographs were taken before and after each culture, and the migration distance of the cells was measured using Image J software. Based on the results, the inhibition of the cell migration was analyzed.

[9] = test system: FaDu cells; experiment: cell migration assay (SPLScar Block plates); assay type: cell-based; details: Homo sapiens, 17 hours, FIG. 3A, read-out: inhibition of migration compared to the control group
Experimental: as §4

[10] = test system: FaDu cells; experiment: clonogenic assay; assay type: cell-based, human; details: 0.125-1 µM, nine days, FIG. 2
Experimental: To confirm the proliferation inhibitory effect of compound AON-MG23 of the present invention on head and neck cancer cells, a clonogenic assay was conducted. Specifically, head and neck cancer cell line FaDu cells were plated in a 6-well cell culture plate at a density of 250 cells per well. On the next day, the cell culture medium was removed and replaced with a cell culture medium containing compound AON-MG23 of the present invention at concentrations of 0 µM, 0.125 µM, 0.25 µM, 0.5 µM, and 1 µM. After culturing the cells for nine days, the resulting cell colonies were stained and photographed, and then the cell colonies were counted and analyzed using Image J software.

[11] = SCC-25 cells, 0.25-2 µM, FIG. 5B

COc1cc(N2CCC(N(C)C)CC2)ccc1Nc1ncc(Cl)c(Nc2ccccc2N(C2CC2)S(C)(=O)=O)n1 [AON-MG23, N-(2-((5-chloro-2-((4-(4-(dimethylamino)piperidin-1-yl)-2-methoxyphenyl)amino)pyrimidin-4-yl)amino)phenyl)-N-cyclopropylmethanesulfonamide]
Bliss synergy score ([1]; combination with osimertinib, FIG. 6B): 19.25
Bliss synergy score ([1]; combination with paclitaxel, FIG. 6A): 6.72 points
degree of penetration into Matrigel [2]: reduced degree of penetration into Matrigel compared to the untreated control group
degree of penetration into Matrigel [3]: reduced degree of penetration into Matrigel compared to the untreated control group
EGFR protein level ([4]; FaDu cells, 0.25-4 µM, FIG. 5A): significantly inhibited
EGFR protein level [4, 11]: significantly inhibited
ANO1 protein level ([5]; FaDu cells, 0.25-4 µM, FIG. 5A): significantly inhibited
ANO1 protein level [5, 11]: significantly inhibited
proliferation of head and neck cancer cells [6]: inhibited the proliferation of head and neck cancer cells
proliferation of head and neck cancer cells [7]: inhibited the proliferation of head and neck cancer cells
inhibition at 1 µM [8]: ~90%
inhibition at 2 µM [9]: ≥ 80%
clonogenesis [10]: clonogenesis of the FaDu cells was inhibited
